# Experiments:
# [1] = system: Brown Norway rats with unilateral optic nerve transection; test: Optic nerve transection, optic nerve fiber counting; assay type: in vivo, Rattus norvegicus; details: for FIBER NUMBER ± SEM / PERCENT DIFFERENCE ± SEM in fiber number between transected and normal eye: 10 mg/kg i.p. daily
# Protocol: All experiments complied with the Association for Research in Vision and Ophthalmology Statement for the Use of Animals in Ophthalmic and Vision Research. 82 male Brown Norway rats (Rattus norvegicus), each weighing approximately 250 gm, were treated using procedures approved by the Animal Care Committee of the Johns Hopkins University School of Medicine. The rats were housed with a 12 hour light/12 hour dark cycle and fed ad libitum.
# OPTIC NERVE TRANSECTION: The optic nerve was transected unilaterally in 26 rats under intraperitoneal pentobarbital anesthesia. The conjunctiva was opened with scissors and the optic nerve exposed by traction on extraocular muscles. The transection was performed with microscissors 5 mm posterior to the globe, with specific attention to avoidance of injury to major ocular blood vessels. Immediately after transection, the retina was examined ophthalmoscopically to assure that the retinal arterial blood supply was not disrupted. The conjunctiva was closed with absorbable suture and the eye dressed with antibiotic ointment. Beginning on the day of transection, the rats were treated daily with intraperitoneal injections of either a vehicle (9 rats with 50 mM HEPES-buffered saline) or a NAALADase inhibitor (8 rats with 10 mg/kg of Compound A and 9 rats with 10 mg/kg of Compound B). 5 saline treated rats, 3 Compound A treated rats and 4 Compound B treated rats were sacrificed at 2 weeks, and the remaining rats at 4 weeks, after transection.
# OPTIC NERVE COUNTING: The rats were sacrificed by exsanguination under deep pentobarbital anesthesia. They were perfused through the heart with 2% paraformaldehyde/2% glutaraldehyde in 0.1 M phosphate buffer, pH 7.2, and the eyes with attached optic nerves were removed. A cross-section of the optic nerve from both experimental (glaucoma or transection) and control eyes was removed 1.5 mm posterior to the globe, 1 mm in thickness, and post-fixed in 2% osmium tetroxide in buffer. These were processed into epoxy resin, sectioned at 1 micron and stained with toluidine blue.
# The area of the optic nerve cross-section was measured by outlining its outer border at 10× magnification on an image analysis system (Universal Imaging Corp., Westchester, Pa.) with Synsys digital camera and Metamorph software. Three area measurements were taken and the mean value was determined. To measure the density and fiber diameter distributions, images were captured with a 100× phase contrast objective from 10 different areas of each nerve. These were edited to eliminate non-neural objects and the size of each axon internal to the myelin sheath (its minimum diameter) and the density of axons/square mm were calculated for each image and nerve. The mean density was multiplied by total nerve area to yield fiber number for each nerve. The total fiber number in glaucoma or transection nerves was compared to the normal, fellow eye of each rat to yield a percent loss value. The number of axons counted among the 10 images was an approximately 20% sample of the 80–90,000 axons in normal rat nerves. The person measuring axon number was masked to the protocol conducted on the nerves.
# BB/W rats = test: Retinal disorders in diabetic BB/W rats (BM thickness, E/P ratio); assay type: in vivo, rat; details: for BM THICKNESS ± SD (n = 3) / E/P RATIO (n = 8–10): diabetic BB/W rats
# Protocol: Four (4) groups of rats received daily insulin injections to maintain their glucose levels at about 350 mg/dl. Starting at the onset of hyperglycemia, NAALADase inhibitor 2-(3-sulfanylpropyl)-pentanedioic acid was administered daily for 6 months to one group of BB/W rats at a dose of 10 mg/kg and to a second group of BB/W rats at a dose of 30 mg/kg. A third group of BB/W rats and a fourth group of non-diabetic rats received daily vehicle treatment (50 mM Hepes buffered saline).
# After six (6) months of NAALADase inhibitor or vehicle treatment, the rats were sacrificed and their eyes were removed. From each rat, one eye was processed for elastase digest while the other eye was processed for transmission electron microscopy (TEM) and basement membrane (BM) thickness.
# Retinal digests were prepared using elastase on retinas as described in Layer, N., Invest Ophthalmol Vis Sci (1993) 34:2097. Eyes were removed from recently killed BB/W rats (n=25) and age-matched […] controls (n=10). The retinas (n=35) were fixed at room temperature by immersing the whole eye (slit at limbus) in 4% (w/v) paraformaldehyde in 50 mmol/L Na—K phosphate buffer with 8% sucrose. The fixed retinas were rinsed in deionized water and were incubated for 3 minutes in a 37° C. agitating water bath in 40 units/mL elastase in Na—K phosphate buffer with 150 mmol/L NaCl and 5 mmol/L ethylenediamine tetraacetic acid (EDTA), pH 6.5. The tissues were washed overnight in 100 mmol/L Tris-HCL (pH 8.5) and then transferred to deionized water for removal of the loosened vitreous and digested neural elements by gentle agitation using the sides of closed forceps and the sides and ends of very fine brushes. After all loose tissues were removed, the retinas were incubated once more in fresh enzyme for 3 minutes and then subjected to a second overnight wash at room temperature in Tns-HCl buffer. On the third day, the retinas were again transferred to deionized water for additional removal of digested neural elements. The vascular network that was completely free of nonvascular elements was mounted flat by flotation in Ca^2+ and Mg^2+ free Dulbecco's PBS on siliconized slides (#S1308, Oncor, Gaithersburg, Md.). After air drying in a dust free environment, the mounts of the retinal microvasculature were stained using periodic acid Schiff reaction and hematoxylin counterstaining, as described in Luna, L., ed. Manual of Histologic Staining Methods of the Armed Forces Institute of Pathology (1968) McGraw-Hill, New York, N.Y. The preparations were then examined by light microscopy and photographed.
# The stained and intact retinal whole mounts were coded and subsequent counting was done masked, as described in Cuthbertson, R., Invest Ophthalmol Vis Sci. (1986) 27:1659–1664).
# Ten fields at ×100 magnification were counted for endothelial and pericyte cells using previously described morphologic criteria (see Kuwabara, T., Arch Ophthalmol. (1960) 64:904–911). In every sample, at least 200 cells were counted from the mid zone of the retina. Mean values for endothelial cell/pericyte (E/P) ratios were initially calculated in 3 retinas from each of the four (4) groups of rats.
# Each eye was fixed in 4% glutaraldehyde and dissected free of sclera and choroids, then trimmed and postfixed in 1% osmium tetroxide. After dehydration and embedding, thin sections were stained with uranyl acetate and lead citrate. Initially, BM thickness of retinal capillaries from 3 non-diabetic rats receiving vehicle, 3 diabetic animals receiving 10 mg/kg 2-(3-sulfanylpropyl)-pentanedioic acid, and 3 diabetic rats receiving 30 mg/kg 2-(3-sulfanylpropyl)-pentanedioic acid were compared with 3 diabetic rats receiving a vehicle. At least 10 capillaries per eye from the inner nuclear and plexiform layers were photographed at a magnification of 10,000×. Exact magnification was determined for each set of negatives with a 28,800 line/inch calibration grid. Negatives were enlarged 3×. […]
# [2] = 2 weeks survival after transection
# [3] = 4 weeks survival after transection
# [4] = 10 mg/kg daily for 6 months, 10 mg/kg
# [5] = 10 mg/kg daily for 6 months, listed as NAALADASE INHIBITOR, 10 mg/kg
# [6] = 30 mg/kg daily for 6 months, 30 mg/kg
# [7] = 30 mg/kg daily for 6 months, listed as NAAALADASE INHIBITOR, 30 mg/kg
# [8] = high dose (30 mg/kg), six months
# [9] = low dose (10 mg/kg), six months
smiles,measurement,setting,value
"O=C(O)CCC(CCCS)C(=O)O (centres unmarked) [Compound B, 2-(3-sulfanylpropyl)-pentanedioic acid]",remaining axons relative to saline-treated rats,[1]; 2 weeks after transection,twice
same,FIBER NUMBER ± SEM,[1]; [2],"19,550 ± 5,091"
same,PERCENT DIFFERENCE ± SEM in fiber number between transected and normal eye,[1]; [2],75.3 ± 6.6%
same,FIBER NUMBER ± SEM,[1]; [3],"5,162 ± 2,509"
same,PERCENT DIFFERENCE ± SEM in fiber number between transected and normal eye,[1]; [3],93.4 ± 3.1%
same,BM THICKNESS ± SD (n = 3),BB/W rats; [4],82.3±4.07 nm
same,E/P RATIO (n = 8–10),BB/W rats; [4],2.4±0.5
same,BM THICKNESS ± SD (n = 3),BB/W rats; [5],82.3 ± 4.07 nm
same,E/P RATIO (n = 8–10),BB/W rats; [5],2.4 ± 0.5
same,BM THICKNESS ± SD (n = 3),BB/W rats; [6],71.7±4.07 nm
same,E/P RATIO (n = 8–10),BB/W rats; [6],1.9±0.4
same,BM THICKNESS ± SD (n = 3),BB/W rats; [7],71.7 ± 4.07 nm
same,E/P RATIO (n = 8–10),BB/W rats; [7],1.9 ± 0.4
same,reduction in BM thickness versus diabetic vehicle,BB/W rats; [8],29.0%
same,reduction of E/P ratios versus diabetic vehicle,BB/W rats; [8],37%
same,decrease in BM thickness versus diabetic vehicle,BB/W rats; [9],18.5%
same,reduction of E/P ratios versus diabetic vehicle,BB/W rats; [9],20%
